Drawing on patent US12696902B2, “Pesticidal pyrazole and triazole derivatives” (priority 2019, dated 2026), this text covers mortality for five molecules.

Common to all, as to type: in vivo
In experiment [1] the test system is Yellow Fever Mosquito (Aedes aegypti). In words: whole plant or invertebrate. The following applies: 48 h, freshly hatched A. aegypti larvae, larval mortality visually assessed after 2 days, read-out: mortality in comparison with untreated controls. The procedure:
For evaluating control of yellow fever mosquito (Aedes aegypti) the test unit consisted of 96-well-microtiter plates containing 200 μl of tap water per well and 5-15 freshly hatched A. aegypti larvae.
The active compounds or mixtures were formulated using a solution containing 75% (v/v) water and 25% (v/v) DMSO. Different concentrations of formulated compounds or mixtures were sprayed onto the insect diet at 2.5 μl, using a custom built micro atomizer, at two replications. For experimental mixtures in these tests identical volumes of both mixing partners at the desired concentrations respectively, were mixed together.
After application, microtiter plates were incubated at 28±1° C., 80±15% RH for 2 days. Larval mortality was then visually assessed.

Experiment [2] deals with Boll Weevil (Anthonomus grandis). In words: Action on boll weevil, egg and larval mortality on insect diet in microtiter plates. The following applies: 120 h, A. grandis eggs on insect diet, egg and larval mortality after 5 days, read-out: mortality in comparison with untreated controls. How it is done:
For evaluating control of boll weevil (Anthonomus grandis) the test unit consisted of 96-well-microtiter plates containing an insect diet and 5-10 A. grandis eggs.
The compounds were formulated using a solution containing 75% (v/v) water and 25% (v/v) DMSO. Different concentrations of formulated compounds were sprayed onto the insect diet at 5 μl, using a custom built micro atomizer, at two replications.
After application, microtiter plates were incubated at about 25+1° C. and about 75+5% relative humidity for 5 days. Egg and larval mortality were then visually assessed.

Experiment [3] concerns Tobacco Budworm (Heliothis virescens). In words: Action on tobacco budworm, egg and larval mortality on insect diet in microtiter plates. The conditions noted are these: 120 h, H. virescens eggs on insect diet, egg and larval mortality after 5 days, read-out: mortality in comparison with untreated controls. The procedure: For evaluating control of tobacco budworm (Heliothis virescens) the test unit consisted of 96-well-microtiter plates containing an insect diet and 15-25 H. virescens eggs.
The compounds were formulated using a solution containing 75% v/v water and 25% v/v DMSO. Different concentrations of formulated compounds were sprayed onto the insect diet at 10 μl, using a custom built micro atomizer, at two replications.
After application, microtiter plates were incubated at about 28+1° C. and about 80+5% relative humidity for 5 days. Egg and larval mortality were then visually assessed.

The subject of experiment [4] is Southern Armyworm (Spodoptera eridania), 2nd Instar Larvae. In words: Action on southern armyworm 2nd instar larvae on sprayed lima bean plants. The following applies: 96 h, 4 days after treatment, read-out: mortality in comparison with untreated controls. How it is done:
The active compounds were formulated by a Tecan liquid handler in 100% cyclohexanone as a 10,000 ppm solution supplied in tubes. The 10,000 ppm solution was serially diluted in 100% cyclohexanone to make interim solutions. These served as stock solutions for which final dilutions were made by the Tecan in 50% acetone:50% water (v/v) into 10 or 20 ml glass vials. A nonionic surfactant (Kinetic®) was included in the solution at a volume of 0.01% (v/v). The vials were then inserted into an automated electrostatic sprayer equipped with an atomizing nozzle for application to plants/insects.
Lima bean plants (variety Sieva) were grown 2 plants to a pot and selected for treatment at the 1st true leaf stage. Test solutions were sprayed onto the foliage by an automated electrostatic plant sprayer equipped with an atomizing spray nozzle. The plants were dried in the sprayer fume hood and then removed from the sprayer. Each pot was placed into perforated plastic bags with a zip closure. About 10 to 11 armyworm larvae were placed into the bag and the bags zipped closed. Test plants were maintained in a growth room at about 25° C. and about 20-40% relative humidity for 4 days, avoiding direct exposure to fluorescent light (24 hour photoperiod) to prevent trapping of heat inside the bags. Mortality and reduced feeding were assessed 4 days after treatment, compared to untreated control plants.

Experiment [5] concerns Diamond Back Moth (Plutella xylostella). In words: Action on diamond back moth, cabbage leaf dip. The following applies: foliar, 3rd instar larvae on dipped cabbage leaves, 72 hours after treatment, read-out: mortality in comparison with untreated controls. The procedure: The active compound is dissolved at the desired concentration in a mixture of 1:1 (v/v) distilled water:acetone. Surfactant (Kinetic® HV) is added at a rate of 0.01% (v/v). The test solution is prepared at the day of use.
Leaves of cabbage were dipped in test solution and air-dried. Treated leaves were placed in petri dishes lined with moist filter paper and inoculated with ten 3rd instar larvae. Mortality was recorded 72 hours after treatment. Feeding damages were also recorded using a scale of 0-100%.

The test system of experiment [6] is Orchid Thrips (Dichromothrips corbetti). Nature of the experiment: Action on orchid thrips, floral-immersion technique. The following applies: adult thrips, 72 hours after treatment, read-out: mortality in comparison with untreated controls. How it is done: Dichromothrips corbetti adults used for bioassay were obtained from a colony maintained continuously under laboratory conditions. For testing purposes, the test compound is diluted in a 1:1 mixture of acetone:water (vol:vol), plus Kinetic® HV at a rate of 0.01% v/v.
Thrips potency of each compound was evaluated by using a floral-immersion technique. All petals of individual, intact orchid flowers were dipped into treatment solution and allowed to drying Petri dishes. Treated petals were placed into individual re-sealable plastic along with about 20 adult thrips. All test arenas were held under continuous light and a temperature of about 28° C. for duration of the assay. After 3 days, the numbers of live thrips were counted on each petal. The percent mortality was recorded 72 hours after treatment.

Structures are written as SMILES.

The mortality is the percentage killed. Consider `Cc1nn(-c2ccc(/C=N/N3C(=O)CS/C3=N\c3ccccc3C(C)C)cc2)cc1C(=N)Nc1ccc(OC(F)(F)F)cc1` [Compound C-53, 1-[4-[(E)-[(2Z)-2-(2-isopropylphenyl)imino-4-oxo-thiazolidin-3-yl]iminomethyl]phenyl]-3-methyl-N-[4-(trifluoromethoxy)phenyl]pyrazole-4-carboxamidine], for which the mortality at 800 ppm in experiment [1] is ≥ 50%; in experiment [2], ≥ 75%; in experiment [3] it was ≥ 75%. In experiment [4], the mortality at 300 ppm is ≥ 75%. Besides, in experiment [5], the mortality at 500 ppm was ≥ 75%.

Turning to `Cc1cc(/C=N/N2C(=O)CS/C2=N\c2ccccc2C(C)C)ccc1-n1cc(NC(=O)c2ccc(OC(F)(F)F)cc2)c(C)n1` [Compound C-11, N-[1-[4-[(E)-[(2Z)-2-(2-isopropylphenyl)imino-4-oxo-thiazolidin-3-yl]iminomethyl]-2-methyl-phenyl]-3-methyl-pyrazol-4-yl]-4-(trifluoromethoxy)benzamide], the mortality at 800 ppm in experiment [1] was ≥ 50%; in experiment [2], ≥ 75%; in experiment [3], ≥ 75%. In addition, the mortality at 300 ppm in experiment [4] was ≥ 75%. For the same molecule, the mortality at 500 ppm in experiment [5] is ≥ 75%.

For the molecule `Cc1nn(-c2ccc(/C=N/N=C3\SCC(=O)N3c3ccccc3C(C)C)cc2)cc1NC(=O)c1ccc2c(c1)OC(F)(F)O2` [Compound C-17, 2,2-difluoro-N-[1-[4-[(E)-[(Z)-[3-(2-isopropylphenyl)-4-oxo-thiazolidin-2-ylidene]hydrazono]methyl]phenyl]-3-methyl-pyrazol-4-yl]-1,3-benzodioxole-5-carboxamide], the mortality at 800 ppm in experiment [1] is ≥ 50%; in experiment [2] it was ≥ 75%; in experiment [3], ≥ 75%. Also, in experiment [4], the mortality at 300 ppm is ≥ 75%. In experiment [5], the mortality at 500 ppm was ≥ 75%.

As to `Cc1nn(-c2ccc(/C=N/NC(=S)Nc3ccccc3C(C)C)cc2)cc1C(=N)Nc1ccc(OC(F)(F)F)cc1` [Compound C-52, 1-(2-isopropylphenyl)-3-[(E)-[4-[3-methyl-4-[N-[4-(trifluoromethoxy)phenyl]carbamimidoyl]pyrazol-1-yl]phenyl]methyleneamino] thiourea], the mortality at 800 ppm in experiment [1] was ≥ 50%; in experiment [2] it was ≥ 75%; in experiment [3] it was ≥ 75%. The mortality at 300 ppm in experiment [4] was ≥ 75%. The mortality at 500 ppm in experiment [5] and in experiment [6] was ≥ 75% in each case.

Take `Cc1nn(-c2ccc(/C=N/NC(=S)Nc3ccccc3C(C)C)cc2)cc1NC(=O)c1ccc2c(c1)OC(F)(F)O2` [Compound C-16, 2,2-difluoro-N-[1-[4-[(E)-[(2-isopropylphenyl)carbamothioylhydrazono]methyl]phenyl]-3-methyl-pyrazol-4-yl]-1,3-benzodioxole-5-carboxamide]: the mortality at 800 ppm in experiment [1] is ≥ 50%; in experiment [2], ≥ 75%; in experiment [3], ≥ 75%. Besides, in experiment [4], the mortality at 300 ppm is ≥ 75%. Further, the mortality at 500 ppm in experiment [5] and in experiment [6] was ≥ 75% throughout.
